Assay results: ChEMBL document CHEMBL1136462, “The effect of remote chirality on the antibacterial activity of indolinyl, tetrahydroquinolyl and dihydrobenzoxazinyl oxazolidinones” (Bioorg Med Chem Lett, 2003)
Values after ≈ are worked out from the molar mass of the structure shown.

Columns and labels:
Staphylococcus aureus [1] = assay: In vitro antibacterial activity against Staphylococcus aureus UC12673 (SA2); type: functional
Moraxella catarrhalis = assay: In vitro antibacterial activity against Moraxella catarrhalis 30607 (b-lactamase+).; type: functional
Haemophilus influenzae = assay: In vitro antibacterial activity against ampicillin resistant Haemophilus influenzae 30063 (AMPR b-lactamase+); type: functional
[2] = system: Staphylococcus epidermidis; assay: In vitro antibacterial activity against methicillin resistant Staphylococcus epidermis US 12084 (MRSE); type: functional
Enterococcus faecalis = assay: In vitro antibacterial activity against vancomycin susceptible Enterococcus faecalis UC19217 (VSEF); type: functional
Streptococcus pneumoniae = assay: In vitro antibacterial activity against penicillin susceptible Streptococcus pneumoniae UC19912 (PSSP); type: functional
Staphylococcus aureus [3] = assay: In vitro antibacterial activity against methicillin susceptible Staphylococcus aureus UC19213 (MSSA); (SA1); type: functional
[4] = Tmax of compound (19.2 mg/kg) after po administration was determined in Sprague-Dawley rat; type: ADME, organism-based; conditions: in vivo
[5] = Oral bioavailability of compound (19.2 mg/kg) after po administration was determined in Sprague-Dawley rat; type: ADME, organism-based; conditions: in vivo
Mus musculus [6] = assay: In vivo efficacy of compound against Staphylococcus aureus UC9213 was determined after peroral administration in mouse; type: functional; conditions: po
[7] = Maximum plasma concentration (Cmax) of compound (19.2 mg/kg) after po administration was determined Sprague-Dawley rat; type: ADME, organism-based; set-up: dose 19.2 mg/kg, route oral
[8] = Maximum plasma concentration (Cmax) of compound (9.83 mg/kg) after iv administration was determined Sprague-Dawley rat; type: ADME, organism-based; set-up: dose 9.83 mg/kg, route intravenous
[9] = Steady state volume distribution (Vss) of compound(9.83 mg/kg) after iv administration was determined in Sprague-Dawley rat; type: ADME, organism-based; conditions: in vivo, read-out: Vss
[10] = Half life of compound (9.83 mg/kg) after iv administration was determined in Sprague-Dawley rat; type: ADME, organism-based; conditions: in vivo
[11] = Clearance (Cl) of compound (9.83 mg/kg) after iv administration was determined in Sprague-Dawley rat; type: ADME, organism-based; conditions: in vivo
[12] = Half life of compound (19.2 mg/kg) after po administration was determined in Sprague-Dawley rat; type: ADME, organism-based; conditions: in vivo
[13] = Tmax of compound (25 mg/kg) after po administration was determined in Sprague-Dawley rat; type: ADME, organism-based; conditions: in vivo
Mus musculus [14] = assay: In vivo efficacy of compound to protect the Staphylococcus aureus UC9213 infected mouse from death after sc administration; type: functional
[15] = Maximum plasma concentration (Cmax) of compound (25 mg/kg) after po administration was determined Sprague-Dawley rat; type: ADME, organism-based; set-up: dose 25 mg/kg, route oral
[16] = Clearance (Cl) of compound (10 mg/kg) after iv administration was determined in Sprague-Dawley rat; type: ADME, organism-based; conditions: in vivo
Rattus norvegicus [17] = assay: Steady state volume distribution (Vss) of compound(9.84 mg/kg) after iv administration was determined in Sprague-Dawley rat; type: ADME, organism-based; conditions: in vivo
Rattus norvegicus [18] = assay: Clearance (Cl) of compound (9.84 mg/kg) after iv administration was determined in Sprague-Dawley rat; type: ADME, organism-based; conditions: in vivo
[19] = Maximum plasma concentration (Cmax) of compound (9.84 mg/kg) after iv administration was determined Sprague-Dawley rat; type: ADME, organism-based; set-up: dose 9.84 mg/kg, route intravenous
[20] = Oral bioavailability of compound (19.76 mg/kg) after po administration was determined in Sprague-Dawley rat; type: ADME, organism-based; conditions: in vivo
[21] = Maximum plasma concentration (Cmax) of compound (19.76 mg/kg) after po administration was determined Sprague-Dawley rat; type: ADME, organism-based; set-up: dose 19.76 mg/kg, route oral
Rattus norvegicus [22] = assay: Half life of compound (9.84 mg/kg) after iv administration was determined in Sprague-Dawley rat; type: ADME, organism-based; conditions: in vivo
[23] = Half life of compound (9.84 mg/kg) after po administration was determined in Sprague-Dawley rat; type: ADME, organism-based; conditions: in vivo
[24] = Tmax of compound (19.76 mg/kg) after po administration was determined in Sprague-Dawley rat; type: ADME, organism-based; conditions: in vivo
Mus musculus [25] = assay: In vivo efficacy of compound to protect the Staphylococcus aureus UC9213 infected mouse from death after po administration; type: functional
[26] = Maximum plasma concentration (Cmax) of compound (9.92 mg/kg) after iv administration was determined Sprague-Dawley rat; type: ADME, organism-based; set-up: dose 9.92 mg/kg, route intravenous
[27] = Maximum plasma concentration (Cmax) of compound (20.73 mg/kg) after po administration was determined Sprague-Dawley rat; type: ADME, organism-based; set-up: dose 20.73 mg/kg, route oral
[28] = Half life of compound (9.92 mg/kg) after iv administration was determined in Sprague-Dawley rat; type: ADME, organism-based; conditions: in vivo
[29] = Half life of compound (20.73 mg/kg) after po administration was determined in Sprague-Dawley rat; type: ADME, organism-based; conditions: in vivo
[30] = Clearance (Cl) of compound (9.92 mg/kg) after iv administration was determined in Sprague-Dawley rat; type: ADME, organism-based; conditions: in vivo
[31] = Steady state volume distribution (Vss) of compound after iv administration was determined in Sprague-Dawley rat; type: ADME, organism-based; conditions: in vivo, read-out: Vss
[32] = Tmax of compound (20.73 mg/kg) after po administration was determined in Sprague-Dawley rat; type: ADME, organism-based; conditions: in vivo
[33] = Oral bioavailability of compound (20.73 mg/kg) after po administration was determined in Sprague-Dawley rat; type: ADME, organism-based; conditions: in vivo

SMILES | MIC (Staphylococcus aureus [1]) [µg/mL] | MIC (Moraxella catarrhalis) [µg/mL] | MIC (Haemophilus influenzae) [µg/mL] | MIC [2] [µg/mL] | MIC (Enterococcus faecalis) [µg/mL] | MIC (Streptococcus pneumoniae) [µg/mL] | MIC (Staphylococcus aureus [3]) [µg/mL] | other results
CC(=O)NC[C@H]1CN(c2ccc3c(c2)OC[C@@H](C)N3C=O)C(=O)O1 | 2 (≈ 6 µM) | 8 (≈ 24 µM) | 64 (≈ 192 µM) | < 1 | 4 (≈ 12 µM) | < 1 | 4 (≈ 12 µM) | –
CC(=O)NC[C@H]1CN(c2ccc3c(c2)C[C@@H](C)N3)C(=O)O1 | 8 (≈ 27.6 µM) | > 61 | > 64 | 4 (≈ 13.8 µM) | 16 (≈ 55.3 µM) | 4 (≈ 13.8 µM) | 8 (≈ 27.6 µM) | –
CC(=O)NC[C@H]1CN(c2ccc3c(c2)C[C@H](C)N3C=O)C(=O)O1 | 8 (≈ 25.2 µM) | > 64 | > 64 | 4 (≈ 12.6 µM) | 16 (≈ 50.4 µM) | 4 (≈ 12.6 µM) | 8 (≈ 25.2 µM) | –
C/C(S)=N/C[C@H]1CN(c2ccc3c(c2)C[C@@H](C)N3C=O)C(=O)O1 | < 0.5 | 1 (≈ 3 µM) | 2 (≈ 6 µM) | < 0.5 | < 0.5 | < 0.5 | < 0.5 | Tmax [4]: 30 min; bioavailability [5]: 30.8%; ED50 (Mus musculus [6]): 7.5 mg/kg; Cmax [7]: 1130 ng/mL; Cmax [8]: 13600 ng/mL; Vd [9]: 0.64 L/kg; half-life [10]: 6 min; clearance [11]: 28.9 mL/min/kg; half-life [12]: 36.6 min
C/C(S)=N/C[C@H]1CN(c2ccc3c(c2)C[C@H](C)N3C=O)C(=O)O1 | 2 (≈ 6 µM) | 16 (≈ 48 µM) | 32 (≈ 96 µM) | 1 (≈ 3 µM) | 2 (≈ 6 µM) | < 0.5 | 2 (≈ 6 µM) | –
CC(=O)NC[C@H]1CN(c2ccc3c(c2)CC[C@@H](C)N3C=O)C(=O)O1 | 1 (≈ 3.02 µM) | 4 (≈ 12.1 µM) | 32 (≈ 96.6 µM) | < 0.5 | 1 (≈ 3.02 µM) | < 0.5 | 2 (≈ 6.04 µM) | –
CC(=O)NC[C@H]1CN(c2ccc3c(c2)OC[C@H](C)N3C=O)C(=O)O1 | 8 (≈ 24 µM) | 32 (≈ 96 µM) | 64 (≈ 192 µM) | < 4 | 32 (≈ 96 µM) | < 4 | 8 (≈ 24 µM) | –
C/C(S)=N/C[C@H]1CN(c2ccc3c(c2)C[C@@H](C)N3C(=O)CO)C(=O)O1 | < 0.5 | 2 (≈ 5.5 µM) | 8 (≈ 22 µM) | < 0.5 | < 0.5 | < 0.5 | < 0.5 | –
C/C(S)=N/C[C@H]1CN(c2ccc3c(c2)CC[C@@H](C)N3C=O)C(=O)O1 | < 0.5 | 1 (≈ 2.88 µM) | 4 (≈ 11.5 µM) | < 0.5 | < 0.5 | < 0.5 | < 0.5 | –
CC(=O)NC[C@H]1CN(c2ccc3c(c2)C[C@H](C)N3C(=O)CO)C(=O)O1 | 8 (≈ 23 µM) | 16 (≈ 46.1 µM) | > 16 | 2 (≈ 5.76 µM) | 8 (≈ 23 µM) | 1 (≈ 2.88 µM) | 8 (≈ 23 µM) | –
CC(=O)NC[C@H]1CN(c2ccc(N3CCOCC3)c(F)c2)C(=O)O1 [LINEZOLID] | – | 8 (≈ 23.7 µM) | 16 (≈ 47.4 µM) | < 1 | – | < 0.5 | – | Tmax [13]: 18 min; ED50 (Mus musculus [14]): 5.6 mg/kg; Cmax [15]: 15800 ng/mL; clearance [16]: 10.5 mL/min/kg
C/C(S)=N/C[C@H]1CN(c2ccc3c(c2)CC[C@H](C)N3C=O)C(=O)O1 | 1 (≈ 2.88 µM) | 2 (≈ 5.76 µM) | 16 (≈ 46.1 µM) | < 0.5 | 2 (≈ 5.76 µM) | < 0.5 | 1 (≈ 2.88 µM) | –
CC(=O)NC[C@H]1CN(c2ccc3c(c2)C[C@@H](C)N3C=O)C(=O)O1 | 1 (≈ 3.15 µM) | 4 (≈ 12.6 µM) | 8 (≈ 25.2 µM) | < 0.5 | 1 (≈ 3.15 µM) | < 0.5 | 1 (≈ 3.15 µM) | Vss (Rattus norvegicus [17]): 1.27 L/kg; CL (Rattus norvegicus [18]): 1.84 mL/min/kg; Cmax [19]: 16100 ng/mL; bioavailability [20]: 56%; Cmax [21]: 7200 ng/mL; T1/2 (Rattus norvegicus [22]): 102 min; half-life [23]: 48 min; Tmax [24]: 30 min
CC(=O)NC[C@H]1CN(c2ccc3c(c2)CC[C@H](C)N3C=O)C(=O)O1 | 4 (≈ 12.1 µM) | 16 (≈ 48.3 µM) | 64 (≈ 193 µM) | < 2 | 8 (≈ 24.1 µM) | < 2 | 8 (≈ 24.1 µM) | –
C/C(S)=N/C[C@H]1CN(c2ccc3c(c2)OC[C@@H](C)N3C=O)C(=O)O1 | < 0.5 | 2 (≈ 5.72 µM) | 32 (≈ 91.6 µM) | < 0.5 | 1 (≈ 2.86 µM) | 0.5 (≈ 1.43 µM) | < 0.5 | –
CC(=O)NC[C@H]1CN(c2ccc3c(c2)C[C@H](C)N3)C(=O)O1 | 32 (≈ 111 µM) | > 64 | > 64 | 16 (≈ 55.3 µM) | 64 (≈ 221 µM) | – | 32 (≈ 111 µM) | –
CC(=O)NC[C@H]1CN(c2ccc3c(c2)C[C@@H](C)N3C(=O)CO)C(=O)O1 | 2 (≈ 5.76 µM) | 8 (≈ 23 µM) | 8 (≈ 23 µM) | 0.5 (≈ 1.44 µM) | 2 (≈ 5.76 µM) | 0.5 (≈ 1.44 µM) | 4 (≈ 11.5 µM) | ED50 (Mus musculus [25]): 1.8 mg/kg; Cmax [26]: 15100 ng/mL; Cmax [27]: 3800 ng/mL; half-life [28]: 108 min; half-life [29]: 168 min; clearance [30]: 24 mL/min/kg; Vd [31]: 1.28 L/kg; Tmax [32]: 30 min; bioavailability [33]: 55.4%
